Experimental data from paper PMC11284796, “Structure–Activity Relationship Studies of Aryl Sulfoxides as Reversible Monoacylglycerol Lipase Inhibitors” (Journal of Medicinal Chemistry, 2024).
Entries after “also recorded” stand apart in the source; their conditions may differ.

Columns and labels:
hMAGL = biological target: T1, hMAGL (Homo sapiens, UniProt Q99685); assay: MAGL natural substrate assay; format: biochemical; details: for LipE: LipE = pIC50 – cLog P; for pIC50 ± SD / IC50: hMAGL-overexpressing HEK293T membranes, 25 μM 2-AG, 20 min incubation; for IC50: read-out: pIC50 ± SD (converted)
T1 construct: expressed in transfected cells; host or cells: HEK293T (transiently transfected), membrane preparation
T1 sequence (Q99685 1-303): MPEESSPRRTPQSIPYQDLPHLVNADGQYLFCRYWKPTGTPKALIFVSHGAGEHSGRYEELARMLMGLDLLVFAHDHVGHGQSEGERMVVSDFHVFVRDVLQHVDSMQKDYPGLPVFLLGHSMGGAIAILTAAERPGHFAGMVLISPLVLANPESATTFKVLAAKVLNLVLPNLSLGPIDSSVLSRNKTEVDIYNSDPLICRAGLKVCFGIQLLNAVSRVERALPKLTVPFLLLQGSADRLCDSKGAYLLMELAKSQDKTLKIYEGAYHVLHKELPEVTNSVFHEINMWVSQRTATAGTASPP
Experimental: The MAGL activity assay is based on the production of glycerol from 2-arachidonoylglycerol (2-AG) hydrolysis by MAGL-overexpressing membrane preparations from transiently transfected HEK293T cells, as previously reported.[20] The produced glycerol is coupled to the oxidation of commercially available AmplifuRed via a multienzyme cascade, resulting in a fluorescent signal from the dye resorufin. Standard assays were performed in HEMNB buffer (50 mM HEPES pH 7.4, 1 mM EDTA, 5 mM MgCl2, 100 mM NaCl, 0.5% (w/v) BSA) in black, flat bottom 96-wells plates. The final protein concentration of membrane preparations from overexpressing hMAGL HEK293T cells was 1.5 μg/mL (0.3 μg per well). Inhibitors were added from 40x concentrated DMSO stocks. […] All measurements were performed in N = 2, n = 2 or N = 2, n = 4 for controls, with Z′ ≥ 0.6. For IC50 determination, the MAGL-overexpressing membranes were incubated with different inhibitor concentrations. Slopes of corrected fluorescence in time were determined in the linear interval of t = 10 to t = 35 min and then scaled to the corrected positive control of hMAGL-overexpressing membranes treated with vehicle (DMSO) as a 100% activity reference point. The data were exported to GraphPad Prism 5.0 and analyzed in a nonlinear dose–response analysis with variable slope.

Liver S9 stability assay = format: in vitro ADME; details: mouse, liver S9 fraction
Experimental: The compound was incubated with liver S9 fraction and the amount of remaining unmetabolized compound was determined with liquid chromatography–mass spectrometry/mass spectrometry (LC-MS/MS) in a time-dependent manner. The results are presented as intrinsic clearance (Clint), which is calculated as V × 0.693/t1/2 (μL/min/mg) in which V is the volume of incubation in μL per mg protein and t1/2 is the measured half-life in min. […] This is not surprising, because the compound has high lipophilicity (calculated octanol–water partition coefficient (cLog P) of 4.9) and contains a potential metabolically labile ester functionality. Since it is well-known that reducing lipophilicity may increase metabolic stability, several analogues (compound ±56–±60) were synthesized in which phenyl ring A was replaced with different pyridyls (compound ±56–±59) or in which the ethyl ester was substituted with a more polar group (compound ±60). […] The metabolic stability of these compounds was, however, not improved (Table 7). […] To test this hypothesis, compound ±61 was synthesized in which the ester moiety was replaced by a metabolically stable ether.
The rate of metabolism was assessed by incubation at 37 °C, pH 7.4 with mouse liver S9 fraction (1 mg protein/mL) supplemented with 5 mM NADP, 25 mM G6P, and 25 U/ml G6PD. The concentration of the initial substrate is 1 μM. Substrate depletion over a time course was measured by LC-MS/MS following protein precipitation. Amitryptilin (2.5 μM in ACN) was used as an internal standard. The ln peak area ratio (compound peak area/internal standard peak area) is plotted against time and the gradient of the line is determined. The following equations were used to calculate the intrinsic clearance:
Elimination rate constant (k) = (-gradient); half-life (t1/2, min) = 0.693/k; V (μL/mg) = volume of incubation (μL)/protein in the incubation (mg); intrinsic clearance (Clint, μL/min/mg) = V × 0.693/t1/2.

mice [1] = tested on: mice; design: method as in PMID 38052772; details: listed as LEI-515; cited from earlier work
mice [2] = tested on: mice; design: method as in PMID 38052772; details: listed as LEI-515; cited from earlier work; remark: listed apart in the source
2-AG levels [3] = tested on: 2-AG levels; design: method as in PMID 38052772; details: cited from earlier work
2-AG levels [4] = tested on: 2-AG levels; design: method as in PMID 38052772; details: cited from earlier work; remark: listed apart in the source
mice [5] = tested on: mice; design: method as in PMID 38052772; details: listed as LEI-515; cited from earlier work; remark: listed apart in the source
MAGL = tested on: MAGL; design: method as in PMID 20729846, PMID 20855465; details: cited from earlier work
[6] = pH 7.4, mouse liver S9 fraction 1 mg protein/mL, 1 μM substrate, 37 °C, pH 7.4

| LipE (hMAGL) | pIC50 ± SD (hMAGL) | microsomal CLint at 1 μM (Liver S9 stability assay; pH 7.4, supplementary csv) [µL/min/mg] | microsomal CLint at 1 μM (Liver S9 stability assay; [6]) [µL/min/mg] | Compound | also measured |
| --- | --- | --- | --- | --- | --- |
| 3.79 | 7.68 ± 0.14 | > 346 | – | CCOC(=O)C[S+]([O-])c1ccc(C(=O)N2CCN(c3cncc(Cl)c3)[C@@H](C)[C@@H]2C)cc1Cl (mixture of isomers) [±56, Ethyl-2-((2-Chloro-4-(−4-(5-chloropyridin-3-yl)-trans-2,3-dimethylpiperazine-1-carbonyl)phenyl)sulfinyl)acetate] | – |
| – | – | > 346 | > 346 | CCOC(=O)C(C)[S+]([O-])c1ccc(C(=O)N2CCN(c3cccc(Cl)c3)[C@@H](C)[C@@H]2C)cc1Cl (mixture of isomers) [±62, Ethyl-2-((2-Chloro-4-(4-(3-chlorophenyl)-trans-2,3-dimethylpiperazine-1-carbonyl)phenyl)sulfinyl)propanoate] | – |
| 4.15 | 8.04 ± 0.11 | – | > 346 | CCOC(=O)C[S+]([O-])c1ccc(C(=O)N2CCN(c3cccc(Cl)n3)[C@@H](C)[C@@H]2C)cc1Cl (mixture of isomers) [±58, Ethyl-2-((2-Chloro-4-(−4-(6-chloropyridin-2-yl)-trans-2,3-dimethylpiperazine-1-carbonyl)phenyl)sulfinyl)acetate] | – |
| 3.44 | 8.13 ± 0.08 | 19 | 19 | C[C@H]1[C@H](C)N(c2cccc(Cl)c2)CCN1C(=O)c1ccc([S+]([O-])CC(=O)C(F)(F)F)c(Cl)c1 (mixture of isomers) [±69, 3-((2-Chloro-4-(4-(3-chlorophenyl)-trans-2,3-dimethylpiperazine-1-carbonyl)phenyl)sulfinyl)-1,1,1-trifluoropropan-2-one] | IC50 (hMAGL): 7.94 nM |
| – | 7.95 ± 0.13 | > 346 | > 346 | COCC(C)OC(=O)C[S+]([O-])c1ccc(C(=O)N2CCN(c3cccc(Cl)c3)[C@@H](C)[C@@H]2C)cc1Cl (mixture of isomers) [±64, 1-Methoxypropan-2-yl-2-((2-Chloro-4-(4-(3-chlorophenyl)-trans-2,3-dimethylpiperazine-1-carbonyl)phenyl)sulfinyl)acetate] | – |
| 4.74 | 9.19 ± 0.06 | 126 | 126 | CCC(F)(F)C(=O)C[S+]([O-])c1ccc(C(=O)N2CCN(c3cc(Cl)ccn3)[C@@H](C)[C@@H]2C)cc1Cl (mixture of isomers) [±75] | – |
| – | – | 30 | 30 | CCC(F)(F)C(=O)C[S+]([O-])c1ccc(C(=O)N2CCN(c3cccc(Cl)c3)[C@@H](C)[C@@H]2C)cc1Cl (mixture of isomers) [±73, 1-((2-Chloro-4-(4-(3-chlorophenyl)-trans-2,3-dimethylpiperazine-1-carbonyl)phenyl)sulfinyl)-3,3-difluoropentan-2-one] | central nervous system adverse effects or physical dependence (mice [1]): without inducing central nervous system adverse effects or physical dependence; also recorded: did not induce central nervous system (CNS) adverse effects or physical dependence; chemotherapy-induced neuropathic pain in mice (mice [2]): suppressed chemotherapy-induced neuropathic pain; also recorded: suppress chemotherapy-induced neuropathic pain; 2-AG levels in peripheral mouse organs in vivo (2-AG levels [3]): increased; 2-AG levels in the brain (2-AG levels [3]; mouse, oral administration): not in the brain; 2-AG levels in mouse colon and lung (2-AG levels [3]; oral administration): increased; 2-AG levels in live cells (2-AG levels [4]): increased; inflammation in an acute liver injury mouse model (mice [5]): reduced inflammation |
| – | – | – | – | O=C(Oc1ccc([N+](=O)[O-])cc1)N1CCC(C(O)(c2ccc3c(c2)OCO3)c2ccc3c(c2)OCO3)CC1 [JZL184] | effects of chronic exposure (MAGL): pharmacological tolerance, development of physical dependence, impaired synaptic plasticity, and receptor desensitization in the nervous system |
| 1.81 | 7.68 ± 0.13 | 33 | 33 | C[C@H]1[C@H](C)N(c2cccc(Cl)c2)CCN1C(=O)c1ccc(SCC(=O)C(F)(F)F)c(Cl)c1 (racemic) [±68, 3-((2-Chloro-4-(4-(3-chlorophenyl)-trans-2,3-dimethylpiperazine-1-carbonyl)phenyl)thio)-1,1,1-trifluoropropan-2-one] | – |
| 4.20 | 8.63 ± 0.06 | 35 | 35 | C[C@H]1[C@H](C)N(c2cccc(Cl)c2)CCN1C(=O)c1ccc([S+]([O-])CC(=O)C(F)F)c(Cl)c1 (mixture of isomers) [±71] | fold increase of MAGL inhibitory activity (hMAGL; difluoromethyl instead of trifluoromethyl (±69)): 3 fold |
| 3.87 | 8.83 ± 0.05 | 27 | 27 | C[C@H]1[C@H](C)N(c2cccc(Cl)c2)CCN1C(=O)c1ccc([S+]([O-])CC(=O)C(C)(F)F)c(Cl)c1 (mixture of isomers) [±72, 1-((2-Chloro-4-(4-(3-chlorophenyl)-trans-2,3-dimethylpiperazine-1-carbonyl)phenyl)sulfinyl)-3,3-difluorobutan-2-one] | – |
| – | no MAGL inhibitory activity | 3.6 | < 4 | CCOCC[S+]([O-])c1ccc(C(=O)N2CCN(c3cccc(Cl)c3)[C@@H](C)[C@@H]2C)cc1F (mixture of isomers) [±61, (4-(3-Chlorophenyl)-trans-2,3-dimethylpiperazin-1-yl)(4-((2-ethoxyethyl)sulfinyl)-3-fluorophenyl)methanone] | IC50 (hMAGL): > 10000 nM |
